Like-named read-outs stand apart in the source and are kept apart here. Ends that are not written are not given here.
Experiments:
[1] = Stability of DNA:transfection reagent complexes before transfection
Experimental: The LAH4 peptide was allowed to incubate with the plasmids for more than 1 hour for large scale (more than or equal 100 L) transient transfections since this incubation time allowed for improved stability of the transfection complexes such that the processes were robust and reproducible. It was discovered that LAH4: DNA complexes are stable at least for 1 hour. In a follow up study, the stability of LAH:DNA complexes are evaluated for up to 1 week when stored at 2-8° C. and/or room temperature and with or without exposure to ambient light.
Transfection: LAH4 solution from the same batch is kept at −20° C. in single use aliquots. LAH4 is thawed at RT and mixed with plasmid DNA containing GFP reporter gene. DNA:LAH4 complexes are kept in closed caps tubes to prevent evaporation at either room temperature or 2-8° C. for indicated periods of time before transfection.
Stability of LAH4:DNA complexes: Biophysical characterization of LAH4:DNA complexes is performed. Methods can include size and charge measurements.

[2] = tested on: Sf9 cells; experiment: rBV titers from bacmid-transfected Sf9 cells; format: cell-based, Spodoptera frugiperda; conditions: FIG. 18
Experimental: The titer of the rBV can be determined using a foci/viral plaque assay. This assay first includes the step of infecting cells with serial dilutions of a solution containing rBV. After infection occurs for a predetermined time, the rBV is removed from the cultures and the cells are incubated for a pre-determined time. After the pre-determined time has elapsed, a plaquing media (e.g., containing agarose) is added to the cultures and allowed to harden. The cells are allowed to further incubate for a pre-determined time and the number of plaques are counted after the pre-determined time. The titer is calculated using the following formula: Titer (plaque forming units/mL)=number of plaques×dilution factor×(1/(mL of inoculum/well)
AAV5 capsids were also produced in Sf9 cells. To produce the AAV5 capsids, Sf9 cells were transfected with bacmids having nucleotide sequences for generating AAV5 capsids or providing an AAV genome vector using the control transfection reagent and different HRPs. […] In culture, the rBVs generated from the initial bacmid transfection subsequently infect other Sf9 cells that in turn generated more rBVs.

[3] = tested on: Sf9 cells; experiment: AAV5 capsids from Sf9 cells infected with the rBVs, ddPCR; format: cell-based, Spodoptera frugiperda; conditions: rBVs from transfected Sf9 cells, FIG. 19
Experimental: The different rBVs were collected and used to further infect naive Sf9 cells to generate AAV5 capsids, where the rBVs have nucleotide sequences for generating AAV5 capsids. The titers were determined using ddPCR. […] The AAV5 capsids produced using LAH4-L1-F4 had concentrations of the VP1 capsid protein and ratios of capsid to vector genomes that were the same as AAV5 capsids produced using the control transfection reagent.

[4] = Viability of transfected HEK293 cells (Trypan Blue exclusion), AAV9 production in Ambr15; format: cell-based; conditions: human, read-out: average cell viability
Experimental: The cell viabilities were quantified using an automated cell counter and Trypan Blue exclusion.
In Ambr15 minibioreactors (15 mL volume), AAV9 capsids were produced in HEK293 cells transfected with plasmids for producing AAV9 capsids and providing an AAV genome vector containing an GFP expression cassette using different complexation volumes of the LAH4 peptide. Prior to transfection, the plasmids were mixed with a concentration of the LAH4 peptide and incubated for 10 minutes and 60 minutes. The LAH4/plasmids mixtures had volumes that were 1% and 10% of the HEK293 cell culture volume. The titers were determined using ddPCR and GFP intensity was measured by attune flow cytometer.

[5] = in vitro; format: in vitro ADME; conditions: human, cells or culture medium
Experimental: Clearance of the ancillary materials such as transfection reagent during bioprocessing is emphasized. We hypothesized that LAH4 is largely degraded by cellular proteases after transfection process is completed. […] Different concentrations of the LAH4 peptide were added to cell culture volumes of 3 L and 100 L (i.e., bioreactors). At 4 hours post transfection, the LAH4 peptide concentration was reduced by ˜45% to ˜85% relative to initial LAH4 peptide concentration. At 24 hours post transfection, the LAH4 peptide concentration was reduced by ˜83% to ˜97% relative to initial LAH4 peptide concentration. At 48 hours post transfection, the LAH4 peptide concentration was reduced by ˜93% to ˜99% relative to initial LAH4 peptide concentration. At 72 hours post transfection, the LAH4 peptide concentration was reduced by ˜96% to ˜99% relative to initial LAH4 concentration.
Cell culturing: Suspension HEK293 cells are cultured according to the manufacturer's instructions in the provided cell culture media. For small scale transfection study HEK293 cells are seeded in the range of at a predetermined cell density in 125 ml Erlenmeyer shake flasks on the day of transfection.
LAH4 detection in cells: Samples are collected at different time points after transfection and analyzed using LC/MS assay.

## polyethylenimine [PEI, reference compound]
[1]
  stability when mixed with plasmids and incubated for extended periods of time: does not remain stable

## KKALLALALHHLAHLAHHLALALKKA (Synthetic LAH5 peptide)
[2]
  rBV titers versus control reagent: comparable

## KKALLAHFFHLLALLALHFFHALKKA (Synthetic LAH4-L1-F4 peptide)
[2]
  rBV titers versus control reagent: comparable
[3]
  AAV5 capsid titers versus control reagent: comparable

## KKALLALALHHLAHLALHLALALKKA [LAH4]
[4]; Ambr15, 1% complexation volume, FIG. 10D
  viability: > 75%
[4]; Ambr15, 10% complexation volume, FIG. 10D
  viability: ~72.5%
[4]; Ambr15, 10 minute complexation time, FIG. 10H
  viability: ~72.5%
[4]; Ambr15, 60 minute complexation time, FIG. 10H
  viability: > 75%
[1]
  stability of LAH4:DNA complexes: ≥ 1 h
[5]
  metabolised at 72 h: > 95%

Source: patent US20240132910A1, “USE OF HISTIDINE RICH PEPTIDES AS A TRANSFECTION REAGENT FOR rAAV AND rBV PRODUCTION” (BioMarin Pharmaceutical Inc., priority 2021, published 2024)
